Measurements taken from the NIST ThermoML archive (doi:10.1021/je301353z).
± gives the expanded uncertainty stated by the source.

How the values were obtained:
[1] = 101.33 kPa, Liquid; for speed of sound: Sing-around technique in a fixed-path interferometer; for mass density: Vibrating tube method
[2] = molar heat capacity at constant pressure; conditions: 101.33 kPa, Liquid, Small sample (50 mg) DSC

Compound `CCn1cc[n+](C)c1.F[B-](F)(F)F` [1-ethyl-3-methylimidazolium tetrafluoroborate] has a speed of sound ([1]; 293.15 K) of 1631 ± 2.1 m/s, a mass density ([1]; 293.15 K) of 1283.89 ± 1.7 kg/m3 and a speed of sound ([1]; 298.15 K) of 1619.4 ± 2.1 m/s. For the same compound, the mass density ([1]; 298.15 K) was 1279.91 ± 1.7 kg/m3, the speed of sound ([1]; 303.15 K) was 1607.6 ± 2.1 m/s and the mass density ([1]; 303.15 K) was 1276.26 ± 1.7 kg/m3. For the same compound, the speed of sound ([1]; 308.15 K) was 1596.3 ± 2.1 m/s, the mass density ([1]; 308.15 K) was 1272.07 ± 1.7 kg/m3 and the “molar heat capacity at constant pressure” value ([2]; 293.15 K) was 303.41 ± 4.7 J/K/mol. The “molar heat capacity at constant pressure” value ([2]; 298.15 K) was 305.12 ± 4.7 J/K/mol, the “molar heat capacity at constant pressure” value ([2]; 303.15 K) was 306.81 ± 4.8 J/K/mol and the “molar heat capacity at constant pressure” value ([2]; 308.15 K) was 308.58 ± 4.8 J/K/mol.
`CN1CCCC1=O` [N-methylpyrrolidone] gave a speed of sound ([1]; 293.15 K) of 1565.5 ± 1.3 m/s, a mass density ([1]; 293.15 K) of 1033.23 ± 1 kg/m3 and a speed of sound ([1]; 298.15 K) of 1546 ± 1.2 m/s. The mass density ([1]; 298.15 K) was 1028.23 ± 1 kg/m3, the speed of sound ([1]; 303.15 K) was 1527.2 ± 1.2 m/s and the mass density ([1]; 303.15 K) was 1023.46 ± 1 kg/m3. The speed of sound ([1]; 308.15 K) was 1507.4 ± 1.2 m/s, the mass density ([1]; 308.15 K) was 1018.66 ± 1 kg/m3 and the “molar heat capacity at constant pressure” value ([2]; 293.15 K) was 165.44 ± 2.6 J/K/mol. For the same compound, the “molar heat capacity at constant pressure” value ([2]; 298.15 K) was 166.22 ± 2.6 J/K/mol, the “molar heat capacity at constant pressure” value ([2]; 303.15 K) was 166.92 ± 2.6 J/K/mol and the “molar heat capacity at constant pressure” value ([2]; 308.15 K) was 167.21 ± 2.6 J/K/mol.
Work on `c1ccncc1` [pyridine] yielded a speed of sound ([1]; 293.15 K) of 1442 ± 1.2 m/s, a mass density ([1]; 293.15 K) of 983.195 ± 1 kg/m3 and a speed of sound ([1]; 298.15 K) of 1417.8 ± 1.2 m/s. The mass density ([1]; 298.15 K) was 978.252 ± 1 kg/m3, the speed of sound ([1]; 303.15 K) was 1398 ± 1.2 m/s and the mass density ([1]; 303.15 K) was 973.228 ± 1 kg/m3. For the same compound, the speed of sound ([1]; 308.15 K) was 1377.1 ± 1.2 m/s, the mass density ([1]; 308.15 K) was 968.171 ± 1 kg/m3 and the “molar heat capacity at constant pressure” value ([2]; 293.15 K) was 130.49 ± 2 J/K/mol. For the same compound, the “molar heat capacity at constant pressure” value ([2]; 298.15 K) was 131.74 ± 2 J/K/mol, the “molar heat capacity at constant pressure” value ([2]; 303.15 K) was 132.71 ± 2.1 J/K/mol and the “molar heat capacity at constant pressure” value ([2]; 308.15 K) was 133.82 ± 2.1 J/K/mol.
With `O=C1CCCN1` [2-pyrrolidinone] the speed of sound ([1]; 293.15 K) was 1650.1 ± 1.3 m/s, the mass density ([1]; 293.15 K) was 1111.28 ± 1 kg/m3 and the speed of sound ([1]; 298.15 K) was 1633.9 ± 1.3 m/s. The mass density ([1]; 298.15 K) was 1107.15 ± 1 kg/m3, the speed of sound ([1]; 303.15 K) was 1617.1 ± 1.3 m/s and the mass density ([1]; 303.15 K) was 1103.02 ± 1 kg/m3. The speed of sound ([1]; 308.15 K) was 1601.8 ± 1.3 m/s, the mass density ([1]; 308.15 K) was 1098.9 ± 1 kg/m3 and the “molar heat capacity at constant pressure” value ([2]; 293.15 K) was 168.36 ± 2.6 J/K/mol. For the same compound, the “molar heat capacity at constant pressure” value ([2]; 298.15 K) was 169.55 ± 2.6 J/K/mol, the “molar heat capacity at constant pressure” value ([2]; 303.15 K) was 171.18 ± 2.6 J/K/mol and the “molar heat capacity at constant pressure” value ([2]; 308.15 K) was 172.37 ± 2.7 J/K/mol.
